# Data: ChEMBL document CHEMBL1146171, “Discovery and initial development of a novel class of antibacterials: inhibitors of Staphylococcus aureus transcription/translation” (Bioorg Med Chem Lett, 2006)
# Assays:
# Assay type in all cases: functional
# Staphylococcus aureus [1] = test: Inhibition of coupled transcription/translation in Staphylococcus aureus at 100 uM; details: for inhibition at 100 µM / IC50: Staphylococcus aureus
# Staphylococcus aureus [2] = test: Antibacterial activity against Staphylococcus aureus
# Staphylococcus aureus [3] = test: Inhibition of coupled transcription/translation in Staphylococcus aureus at 30 uM
# [4] = Staphylococcus aureus, read-out: MIC
smiles,measurement,setting,value
CCCN(CCC)S(=O)(=O)c1ccc(C(=O)Nc2ccc3ccccc3c2)cc1,inhibition at 100 µM,Staphylococcus aureus [1],10%
same,MIC,Staphylococcus aureus [2]; [4],> 128 µg/mL
Cl.O=C(Nc1ccc(Br)cc1C(=O)O)c1ccc(S(=O)(=O)N2CCCCC2)cc1,inhibition at 100 µM,Staphylococcus aureus [1],34%
same,MIC,Staphylococcus aureus [2]; [4],16 µg/mL
Cc1ccc(C(=O)Nc2ccc(Br)cc2C(=O)O)cc1S(=O)(=O)NC1Cc2ccccc2C1,inhibition at 30 µM,Staphylococcus aureus [3],20%
same,MIC,Staphylococcus aureus [2]; [4],0.25 µg/mL
CCCN(CCC)S(=O)(=O)c1ccc(C(=O)Nc2c(OC)cc(OC)cc2C(=O)O)cc1,inhibition at 100 µM,Staphylococcus aureus [1],0%
same,MIC,Staphylococcus aureus [2]; [4],> 128 µg/mL
O=C(Nc1ccc(Br)cc1C(=O)O)c1ccc(S(=O)(=O)N2CCCCC2)cc1,Inhibition,Staphylococcus aureus [1],35%
same,MIC,Staphylococcus aureus [2]; [4],16 µg/mL
O=C(Nc1ccc(Br)cc1C(=O)O)c1ccc(S(=O)(=O)N2CCc3ccccc3C2)cc1,IC50,Staphylococcus aureus [1],60 µM
same,inhibition at 100 µM,Staphylococcus aureus [1],84%
same,MIC,Staphylococcus aureus [2]; [4],8 µg/mL
CC1(c2ccccc2)CCCN(S(=O)(=O)c2ccc(C(=O)Nc3ccc(Br)cc3C(=O)O)cc2)C1 (stereo unspecified),IC50,Staphylococcus aureus [1],30 µM
same,inhibition at 100 µM,Staphylococcus aureus [1],96%
same,MIC,Staphylococcus aureus [2]; [4],16 µg/mL
CCCN(CCC)S(=O)(=O)c1ccc(C(=O)Nc2ccc(Br)cc2C(=O)O)cc1,inhibition at 100 µM,Staphylococcus aureus [1],61%
same,MIC,Staphylococcus aureus [2]; [4],8 µg/mL
O=C(Nc1ccc(Br)cc1C(=O)O)c1ccc(S(=O)(=O)N2CC3CCC2CC3)cc1,inhibition at 100 µM,Staphylococcus aureus [1],57%
same,MIC,Staphylococcus aureus [2]; [4],8 µg/mL
CCCN(CCC)S(=O)(=O)c1ccc(C(=O)Nc2cc3ccccc3cc2O)cc1,inhibition at 100 µM,Staphylococcus aureus [1],10%
same,MIC,Staphylococcus aureus [2]; [4],> 128 µg/mL
O=C(Nc1ccc(Br)cc1C(=O)O)c1ccc(S(=O)(=O)Nc2cccc(OCc3ccccc3)c2)cc1,inhibition at 100 µM,Staphylococcus aureus [1],75%
same,MIC,Staphylococcus aureus [2]; [4],8 µg/mL
O=C(Nc1ccc(Br)cc1C(=O)O)c1ccc(S(=O)(=O)Nc2ccc(Cl)cc2)cc1,inhibition at 100 µM,Staphylococcus aureus [1],45%
same,MIC,Staphylococcus aureus [2]; [4],16 µg/mL
O=C(Nc1ccc(Br)cc1C(=O)O)c1ccc(S(=O)(=O)N2CCC(c3ccccc3)CC2)cc1,IC50,Staphylococcus aureus [1],55 µM
same,inhibition at 100 µM,Staphylococcus aureus [1],96%
same,MIC,Staphylococcus aureus [2]; [4],8 µg/mL
O=C(Nc1ccc(Br)cc1C(=O)O)c1ccc(S(=O)(=O)N2CCCC23CCCCC3)cc1,IC50,Staphylococcus aureus [1],60 µM
same,inhibition at 100 µM,Staphylococcus aureus [1],90%
same,MIC,Staphylococcus aureus [2]; [4],4 µg/mL
O=C(Nc1ccc(Br)cc1C(=O)O)c1cc(S(=O)(=O)NC2Cc3ccccc3C2)ccc1Br,inhibition at 30 µM,Staphylococcus aureus [3],30%
same,MIC,Staphylococcus aureus [2]; [4],0.25 µg/mL
CCCN(CCC)S(=O)(=O)c1ccc(C(=O)Nc2cc3ccccc3cc2C(=O)O)cc1,inhibition at 100 µM,Staphylococcus aureus [1],30%
same,MIC,Staphylococcus aureus [2]; [4],64 µg/mL
COCCN(CCOC)S(=O)(=O)c1ccc(C(=O)Nc2ccc(Br)cc2C(=O)O)cc1,inhibition at 100 µM,Staphylococcus aureus [1],10%
same,MIC,Staphylococcus aureus [2]; [4],32 µg/mL
COC(=O)c1cc(Br)ccc1NC(=O)c1ccc(S(=O)(=O)Nc2cccc(OCc3ccccc3)c2)cc1,inhibition at 100 µM,Staphylococcus aureus [1],4%
same,MIC,Staphylococcus aureus [2]; [4],> 128 µg/mL
CN(c1ccc(Cl)cc1)S(=O)(=O)c1ccc(C(=O)Nc2cc(Cl)ccc2C(=O)O)cc1,inhibition at 100 µM,Staphylococcus aureus [1],47%
same,MIC,Staphylococcus aureus [2]; [4],64 µg/mL
COc1cccc(NS(=O)(=O)c2ccc(C(=O)Nc3ccc(Br)cc3C(=O)O)cc2)c1,inhibition at 100 µM,Staphylococcus aureus [1],20%
same,MIC,Staphylococcus aureus [2]; [4],16 µg/mL
CCCN(c1ccccc1)S(=O)(=O)c1ccc(C(=O)Nc2ccc(Br)cc2C(=O)O)cc1,inhibition at 100 µM,Staphylococcus aureus [1],80%
same,MIC,Staphylococcus aureus [2]; [4],16 µg/mL
O=C(Nc1ccc(Br)cc1C(=O)O)c1ccc(S(=O)(=O)N2CCC(Cc3ccccc3)CC2)cc1,IC50,Staphylococcus aureus [1],28 µM
same,inhibition at 100 µM,Staphylococcus aureus [1],98%
same,MIC,Staphylococcus aureus [2]; [4],16 µg/mL
O=C(Nc1ccc(Br)cc1C(=O)O)c1cc(S(=O)(=O)Nc2ccc3c(c2)OCCO3)ccc1Br,inhibition at 30 µM,Staphylococcus aureus [3],15%
same,MIC,Staphylococcus aureus [2]; [4],0.5 µg/mL
COc1ccc(NC(=O)c2ccc(S(=O)(=O)Nc3cccc(C(F)(F)F)c3)cc2)c(C(=O)O)c1,inhibition at 100 µM,Staphylococcus aureus [1],35%
same,MIC,Staphylococcus aureus [2]; [4],> 128 µg/mL
CC1(C)Cc2ccccc2N1S(=O)(=O)c1ccc(C(=O)Nc2ccc(Br)cc2C(=O)O)cc1,IC50,Staphylococcus aureus [1],55 µM
same,inhibition at 100 µM,Staphylococcus aureus [1],87%
same,MIC,Staphylococcus aureus [2]; [4],2 µg/mL
O=C(Nc1ccc(Br)cc1C(=O)O)c1ccc(S(=O)(=O)N2CCc3ccc(Cl)cc32)cc1,inhibition at 30 µM,Staphylococcus aureus [3],93%
same,IC50,Staphylococcus aureus [1],40 µM
same,inhibition at 100 µM,Staphylococcus aureus [1],96%
same,MIC,Staphylococcus aureus [2],0.5 µg/mL
same,MIC,Staphylococcus aureus [2]; [4],1 µg/mL
O=C(Nc1ccc(Br)cc1C(=O)O)c1ccc(S(=O)(=O)N2CCCC23CCC(O)CC3)cc1 (stereo unspecified),inhibition at 100 µM,Staphylococcus aureus [1],22%
same,MIC,Staphylococcus aureus [2]; [4],8 µg/mL
O=C(Nc1ccc(Br)cc1C(=O)O)c1ccc(S(=O)(=O)N2CCc3cc(Cl)ccc32)cc1,IC50,Staphylococcus aureus [1],80 µM
same,inhibition at 100 µM,Staphylococcus aureus [1],71%
same,MIC,Staphylococcus aureus [2]; [4],1 µg/mL
O=C(Nc1ccc(Br)cc1C(=O)O)c1ccc(S(=O)(=O)N2CC3CCCC(C3)C2)cc1,IC50,Staphylococcus aureus [1],60 µM
same,inhibition at 100 µM,Staphylococcus aureus [1],88%
same,MIC,Staphylococcus aureus [2]; [4],4 µg/mL
O=C(Nc1ccc(Br)cc1C(=O)O)c1ccc(S(=O)(=O)Nc2cccc(C(F)(F)F)c2)cc1,inhibition at 100 µM,Staphylococcus aureus [1],65%
same,MIC,Staphylococcus aureus [2]; [4],8 µg/mL
CCCN(c1ccccc1)S(=O)(=O)c1ccc(C(=O)Nc2ccc(Cl)cc2C(=O)O)cc1,inhibition at 100 µM,Staphylococcus aureus [1],50%
same,MIC,Staphylococcus aureus [2]; [4],32 µg/mL
O=C(Nc1ccc(Br)cc1C(=O)O)c1ccc(S(=O)(=O)N2Cc3ccccc3C2)cc1,inhibition at 100 µM,Staphylococcus aureus [1],77%
same,MIC,Staphylococcus aureus [2]; [4],4 µg/mL
CCCN(c1ccccc1)S(=O)(=O)c1ccc(C(=O)Nc2ccc(I)cc2C(=O)O)cc1,inhibition at 100 µM,Staphylococcus aureus [1],90%
same,MIC,Staphylococcus aureus [2]; [4],16 µg/mL
O=C(Nc1ccc(Br)cc1C(=O)O)c1ccc(S(=O)(=O)N2CCC[C@@H]2CO)cc1,inhibition at 100 µM,Staphylococcus aureus [1],19%
same,MIC,Staphylococcus aureus [2]; [4],> 128 µg/mL
CN(c1ccc(Cl)cc1)S(=O)(=O)c1ccc(C(=O)Nc2ccc(Br)cc2C(=O)O)cc1,Inhibition,Staphylococcus aureus [1],80%
same,inhibition at 100 µM,Staphylococcus aureus [1],75%
same,MIC,Staphylococcus aureus [2],16 µg/mL
same,MIC,Staphylococcus aureus [2]; [4],8 µg/mL
Cc1cc(Br)ccc1NC(=O)c1ccc(S(=O)(=O)N(C)c2ccc(Cl)cc2)cc1,inhibition at 100 µM,Staphylococcus aureus [1],12%
same,MIC,Staphylococcus aureus [2]; [4],> 128 µg/mL
CCCN(c1ccccc1)S(=O)(=O)c1ccc(C(=O)Nc2ccc(C)cc2C(=O)O)cc1,inhibition at 100 µM,Staphylococcus aureus [1],34%
same,MIC,Staphylococcus aureus [2]; [4],128 µg/mL
O=C(Nc1ccc(Br)cc1C(=O)O)c1ccc(S(=O)(=O)N2CCC(Nc3ccccc3)CC2)cc1,inhibition at 100 µM,Staphylococcus aureus [1],62%
same,MIC,Staphylococcus aureus [2]; [4],32 µg/mL
CN(c1ccc(Cl)cc1)S(=O)(=O)c1ccc(C(=O)Nc2ccc(F)cc2C(=O)O)cc1,inhibition at 100 µM,Staphylococcus aureus [1],30%
same,MIC,Staphylococcus aureus [2]; [4],> 128 µg/mL
CN(c1ccc(Cl)cc1)S(=O)(=O)c1ccc(C(=O)Nc2ccc(Cl)c(C(=O)O)c2)cc1,inhibition at 100 µM,Staphylococcus aureus [1],10%
same,MIC,Staphylococcus aureus [2]; [4],> 128 µg/mL
CN(c1ccc(Cl)cc1)S(=O)(=O)c1ccc(C(=O)Nc2ccc(Cl)cc2C(=O)O)cc1,inhibition at 100 µM,Staphylococcus aureus [1],85%
same,MIC,Staphylococcus aureus [2]; [4],16 µg/mL
N#Cc1cccc(NS(=O)(=O)c2ccc(C(=O)Nc3ccc(Br)cc3C(=O)O)cc2)c1,inhibition at 100 µM,Staphylococcus aureus [1],30%
same,MIC,Staphylococcus aureus [2]; [4],64 µg/mL
COc1ccc(N(C)S(=O)(=O)c2ccc(C(=O)Nc3ccc(Br)cc3C(=O)O)cc2)cc1,inhibition at 100 µM,Staphylococcus aureus [1],50%
same,MIC,Staphylococcus aureus [2]; [4],32 µg/mL
O=C(Nc1cc(F)c(F)cc1C(=O)O)c1ccc(S(=O)(=O)Nc2cccc(C(F)(F)F)c2)cc1,inhibition at 100 µM,Staphylococcus aureus [1],55%
same,MIC,Staphylococcus aureus [2]; [4],> 128 µg/mL
